Laboratory results taken from PMC6270864, “Identification of Two Novel α1-AR Agonists Using a High-Throughput Screening Model” (Molecules, 2014).

What was measured:
[1] = tested on: LNCaP human prostate cancer cell line; assay: CCK-8 assay, cytotoxic / anti-proliferative activity; format: cell-based; conditions: CCK-8, 24 h exposure, mean ± SD, three experiments
Procedure: (§1) Cell proliferation was measured with the Cell Counting Kit-8 (CCK-8) assay kit (Dojindo Corp., Kumamoto, Japan). Cells were harvested during logarithmic growth phase and seeded in 96-well plates at a density of 1 × 10^5 cells/mL, and cultured at 37 °C in a humidified incubator (5% CO2) for 24 h, followed by exposure to various concentrations of compounds tested for 24 h. Subsequently 10 μL of CCK-8 (Dojindo) was added to each well, the cells were then incubated for an additional 1 h at 37 °C to convert WST-8 into formazan. Cell growth inhibition was determined by measuring the absorbance (Abs) at λ = 450 nm using amicroplate reader. Three independent experiments were performed. Cell growth inhibition was calculated according to the following equation: Growth inhibition = (1 − OD of treated cells/OD of control cells) × 100% (2)
(§2) The half maximal inhibitory concentrations (IC50) were obtained from liner regression analysis of the concentration-response curves plotted for each tested compound.

[2] = tested on: PC-3 human prostate cancer cell line; assay: as above; format: cell-based; conditions: CCK-8, 24 h exposure, mean ± SD, three experiments
Procedure: as §1, §2

[3] = tested on: DU145 human prostate cancer cell line; assay: as above; format: cell-based; conditions: DU-145, CCK-8, 24 h exposure, mean ± SD, three experiments
Procedure: as §1, §2

[4] = tested on: RWPE-1 human prostate epithelial cell line; assay: as above; format: cell-based; conditions: for cytotoxic effects on human epithelial prostate normal cells RWPE-1: CCK-8; for IC50: Homo sapiens, RWPE-1, CCK-8, 24 h exposure, mean ± SD, three experiments
Procedure: as §1, §2

[5] = tested on: α1-ARs (α1A, α1B, and α1D); assay: Dual-luciferase CRE reporter HTS assay, agonist mode, summary over subtypes; format: cell-based, human; conditions: for EC50: range over the three subtypes and both compounds, read-out: EC50, agonistic activities on α1-ARs (α1A, α1B, and α1D)
Procedure: (§3) HEK293 cells were plated at a density of 10^5 […] in 96-well plates in 100 μL of DMEM basic medium containing 10% fetal bovine serum, 100 U/mL penicillin, and 0.1 mg/mL streptomycin. After overnight incubation, human ADRA1-expression vectors, namely, ADRA1A, ADRA1B, and ADRA1D, were co-transfected with reporter vectors (CRE, SRE, AP1, NFAT, and NF-кB) and pGL4.74 [hRluc/TK] (included as a control for transfection efficiency) using Lipofectamine 2000 transfection reagent (Invitrogen Life Technologies, Carlsbad, CA, USA). The medium was removed after 4 h and replaced with high-glucose DMEM for 18 h. Cells were then treated with agonists (at concentrations of 0.01–20 μM) and incubated for 8 h.
(§4) Firefly and Renilla luciferase activities, which are indicated as RLUs, were determined using Dual-Glo luciferase assay kits (Promega) according to the manufacturer’s instructions. RLUs were measured using a luminometer (GloMaxTM 96-Microplate Luminometer, Promega) and are reported as the mean ± SEM of three individual experiments. For agonists, fold of induction = RLUinduced/RLUuninduced. For antagonists, % of control = 100 × RLU (agonist + antagonist)/RLU(agonist alone). All RLUs were normalized against firefly RLUs/Renilla RLUs. […] The pKB of the antagonist was calculated by plotting log (dose ratio–1) against the antagonist dose (μM) and subjecting the data to Schild regression, where the intercept of the x-axis represents the pKB.

[6] = target: T1, human α1D-adrenoceptor (ADRA1D) expressed in HEK293 cells (Homo sapiens, UniProt P25100); assay: Dual-luciferase CRE reporter HTS assay, agonist mode; format: cell-based; conditions: HEK293, 8 h, read-out: EC50 α1D (agonistic activity)
T1 construct: eGFP; host or cells: HEK293 (transient, Lipofectamine 2000)
T1 sequence (P25100 1-572): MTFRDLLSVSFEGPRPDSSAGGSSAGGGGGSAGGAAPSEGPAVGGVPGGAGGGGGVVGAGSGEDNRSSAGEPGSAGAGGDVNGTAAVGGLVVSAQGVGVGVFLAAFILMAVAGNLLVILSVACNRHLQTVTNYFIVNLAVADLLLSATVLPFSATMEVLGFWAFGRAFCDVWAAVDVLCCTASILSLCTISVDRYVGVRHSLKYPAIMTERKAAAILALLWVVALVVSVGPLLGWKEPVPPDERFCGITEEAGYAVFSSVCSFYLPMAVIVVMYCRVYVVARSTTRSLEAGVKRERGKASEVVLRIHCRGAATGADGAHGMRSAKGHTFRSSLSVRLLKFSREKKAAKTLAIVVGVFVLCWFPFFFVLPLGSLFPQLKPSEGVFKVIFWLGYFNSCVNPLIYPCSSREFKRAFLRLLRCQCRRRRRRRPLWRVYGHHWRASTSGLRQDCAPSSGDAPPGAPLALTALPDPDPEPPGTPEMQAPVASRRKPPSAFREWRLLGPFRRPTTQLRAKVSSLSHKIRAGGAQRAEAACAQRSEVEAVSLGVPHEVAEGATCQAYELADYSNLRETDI
Procedure: as §3, §4

[7] = target: T2, human α1B-adrenoceptor (ADRA1B) expressed in HEK293 cells (Homo sapiens, UniProt P35368); assay: as above; format: cell-based; conditions: HEK293, 8 h, read-out: EC50 α1B (agonistic activity)
T2 construct: eGFP; host or cells: HEK293 (transient, Lipofectamine 2000)
T2 sequence (P35368 1-520): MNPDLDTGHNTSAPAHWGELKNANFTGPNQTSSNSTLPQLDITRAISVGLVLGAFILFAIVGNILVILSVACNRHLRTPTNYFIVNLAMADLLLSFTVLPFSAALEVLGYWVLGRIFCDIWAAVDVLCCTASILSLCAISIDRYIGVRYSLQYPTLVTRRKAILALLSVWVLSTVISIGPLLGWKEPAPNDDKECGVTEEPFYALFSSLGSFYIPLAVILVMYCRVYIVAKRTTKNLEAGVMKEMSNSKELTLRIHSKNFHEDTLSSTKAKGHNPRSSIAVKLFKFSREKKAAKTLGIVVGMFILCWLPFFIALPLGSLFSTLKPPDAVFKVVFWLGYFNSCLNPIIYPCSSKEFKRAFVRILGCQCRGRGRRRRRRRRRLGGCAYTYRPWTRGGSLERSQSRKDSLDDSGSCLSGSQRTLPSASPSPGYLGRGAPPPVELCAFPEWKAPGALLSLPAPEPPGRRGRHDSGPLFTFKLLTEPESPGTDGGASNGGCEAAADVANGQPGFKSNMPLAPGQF
Procedure: as §3, §4

[8] = tested on: human prostate cancer cell lines (PC-3, LNCaP and DU145); assay: CCK-8 assay, summary over tested cancer cell lines; format: cell-based; conditions: range over PC-3, LNCaP, DU145 and both compounds, read-out: IC50, cytotoxic activities against tested cancer cell lines
Procedure: as §1, §2

[9] = target: T3, human α1A-adrenoceptor (ADRA1A) expressed in HEK293 cells (Homo sapiens, UniProt P35348); assay: Dual-luciferase CRE reporter HTS assay, agonist mode; format: cell-based; conditions: HEK293, 8 h, read-out: EC50 α1A (agonistic activity)
T3 construct: eGFP; host or cells: HEK293 (transient, Lipofectamine 2000)
T3 sequence (P35348 1-466): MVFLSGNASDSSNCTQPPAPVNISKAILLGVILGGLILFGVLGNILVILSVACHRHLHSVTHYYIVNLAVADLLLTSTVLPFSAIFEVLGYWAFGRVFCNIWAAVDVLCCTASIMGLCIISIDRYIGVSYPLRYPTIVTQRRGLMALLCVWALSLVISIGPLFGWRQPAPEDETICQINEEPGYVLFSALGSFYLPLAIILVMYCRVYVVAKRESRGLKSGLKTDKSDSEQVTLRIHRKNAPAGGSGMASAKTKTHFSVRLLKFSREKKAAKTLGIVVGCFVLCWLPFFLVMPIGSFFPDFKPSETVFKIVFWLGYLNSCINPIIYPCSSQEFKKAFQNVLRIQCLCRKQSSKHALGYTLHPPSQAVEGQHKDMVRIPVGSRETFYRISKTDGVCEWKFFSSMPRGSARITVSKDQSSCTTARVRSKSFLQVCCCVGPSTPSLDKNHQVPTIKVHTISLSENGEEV
Procedure: as §3, §4

[10] = target: T1, human α1D-adrenoceptor (ADRA1D) expressed in HEK293 cells; assay: Dual-luciferase CRE reporter HTS assay, inhibition of PE-induced CRE activation (RIP); format: cell-based; conditions: relative inhibitory potency = (RLU PE alone − RLU PE+antagonist)/RLU PE alone
Procedure: (§5) Furthermore, the relative inhibitory potency (RIP) could be used to improve the readability of the results. Which was determined relative to that of PE-induced group ([…]), and calculated using the following formula [15]: RIP = (RLUPE alone − RLUPE+antagonist)/RLUPE alone(1)
as §3, §4

[11] = target: T3, human α1A-adrenoceptor (ADRA1A) expressed in HEK293 cells; assay: as above; format: cell-based; conditions: relative inhibitory potency = (RLU PE alone − RLU PE+antagonist)/RLU PE alone
Procedure: as §5, §3, §4

[12] = target: T2, human α1B-adrenoceptor (ADRA1B) expressed in HEK293 cells; assay: as above; format: cell-based; conditions: relative inhibitory potency = (RLU PE alone − RLU PE+antagonist)/RLU PE alone
Procedure: as §5, §3, §4

[13] = tested on: α1-ARs (α1A, α1B, α1D); conditions: α1-AR subtype selectivity, cited from earlier work

Row | SMILES | IC50 [1] [µM] | IC50 [2] [µM] | IC50 [3] [µM] | IC50 [4] [µM] | EC50 [6] [µM] | RIP Values (Mean ± S.E.M, n = 4) α1D [10] | RIP Values (Mean ± S.E.M, n = 4) α1A [11] | RIP Values (Mean ± S.E.M, n = 4) α1B [12] | also measured
1 | Cc1ccc(S(=O)(=O)OCCc2ccc(CN3C(=O)c4ccccc4C3=O)cc2)cc1 [CHE3] | 47 ± 1.24 | 91.3 ± 1.13 | 11.1 ± 1.07 | 30.7 ± 0.66 | 47.2 |  |  |  | cytotoxic effects on human epithelial prostate normal cells RWPE-1 [4]: exhibited cytotoxic effects; EC50 [5]: 25.3 to 47.2 µM; subtype selectivity in the HTS assay ([5]; α1A, α1B, α1D): did not display significant subtype selectivity; EC50 [7]: 42.7 µM; IC50 [8]: 11.1 to 91.3 µM
2 | CNC[C@H](O)c1cccc(O)c1 [Phenylephrine, phenylephrine, reference compound] |  |  |  |  | 2.68 |  |  |  | 
3 | Cc1ccc(S(=O)(=O)OCCc2ccc(COc3ccc4c(c3)OCO4)cc2)cc1 [CHK3] | 51.5 ± 1.08 | 55.3 ± 1.09 | 39.1 ± 0.81 | 31.7 ± 0.61 | 34.3 |  |  |  | cytotoxic effects on human epithelial prostate normal cells RWPE-1 [4]: exhibited cytotoxic effects; EC50 [5]: 25.3 to 47.2 µM; EC50 [9]: 42.5 µM; EC50 [7]: 35.2 µM; IC50 [8]: 11.1 to 91.3 µM
4 | COc1ccccc1N1CCN(CCCNc2c(C)c(=O)n(C)c(=O)n2C)CC1 [5-Methylurapidil, 5-methylurapidil] |  |  |  |  |  | 0.51 ± 0.09 | 0.83 ± 0.03 | 0.63 ± 0.07 | 
5 | COc1cc2nc(N3CCN(C(=O)C4CCCO4)CC3)nc(N)c2cc1OC (stereo not drawn) [Terazosin, terazosin] |  |  |  |  |  | 0.49 ± 0.02 | 0.89 ± 0.05 | 0.91 ± 0.02 | Reported Selectivity [13]: Nonselective [17]; Reported Selectivity (Table S1) ([13]; ref 2 (supplement)): Nonselective
6 | COc1cc2nc(N3CCN(C(=O)OCc4ccccc4)[C@H](C(=O)NC(C)(C)C)C3)nc(N)c2cc1OC [Compound L-765314] |  |  |  |  |  | 0.30 ± 0.11 | 0.53 ± 0.08 | 0.86 ± 0.01 | 
7 | COc1ccccc1N1CCN(CC(O)COc2cccc3ccccc23)CC1 (stereo not drawn) [Naftopidil, naftopidil, reference compound] | 22.4 ± 0.61 | 42.1 ± 0.79 | 34.58 ± 0.31 | 52 ± 1.51 |  | 0.93 ± 0.01 | 0.79 ± 0.09 | 0.77 ± 0.02 | 
